{"source": "patent US9945845B2", "about": "“Methods of screening using amphibians” (priority 2009, dated 2018)", "key": {"LEC [1]": {"test_system": "LEC", "experiment": "LEC cell proliferation assay", "type": "cell-based, human", "settings": "Homo sapiens, 48 h, 10 μM in 0.1% DMSO, 48 hours; read-out: LEC proliferation", "method_in_brief": "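HUVEC and LEC in EBM with 20% FBS, hydrocortisone and dibutyryl-cAMP were treated with compound at 10 μM in 0.1% DMSO for 48 hours. Viable cells read by fluorescence, in five replicates.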"}, "LEC [2]": {"test_system": "LEC", "experiment": "cells", "type": "cell-based, human", "settings": "Homo sapiens; for activity at 1 µM: 1 μM in 0.1% DMSO", "method_in_brief": "(§1)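 HUVEC and LEC in EBM with 20% FBS, hydrocortisone and dibutyryl-cAMP, up to eleven passages, treated overnight at 37 °C with compound at 1 μM in 0.1% DMSO, then fixed in 4% paraformaldehyde. Read-out: total tube length (μm) per area over three hotspot images per well, triplicate wells.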"}, "HUVEC": {"test_system": "HUVEC", "experiment": "HUVEC tube formation assay", "type": "cell-based, human", "settings": "Homo sapiens, HUVEC, 1 μM in 0.1% DMSO", "method_in_brief": "as §1"}, "[3]": {"test_system": "VEGFA-induced dermal neovascularization", "experiment": "Matrigel plug implantation assay (VEGFA-induced angiogenesis and lymphatic vessel enlargement)", "type": "in vivo, mouse", "settings": "mice, 3 mg/kg/day orally, 6 days", "experimental": "The mouse studies were conducted under protocols approved by the Veterinary Office of the Canton of Zurich, Switzerland (permit #123/2005). Nine week-old female wild-type FVB mice (Charles River) were used for the experiments (n=6 per group). Prior to Matrigel implantation, the mice were anesthetized by intraperitoneal injection of 200 μl of Dormitor (20 μg/ml medetomidine; Pfizer) and Narketan 10 (8 mg/ml ketamine; Vétoquinol). The left hip of the animals were shaved and subsequently Matrigel was implanted by intradermal injection of 100 μl of unpolymerized growth factor-reduced Matrigel (BD Biosciences) containing 0.5 mg/ml recombinant human VEGFA (#0081109; National Cancer Institute, USA). The mice were treated orally with either 200 μl PEG-400 (Fluka; pH adjusted to 5.2; control group) or with 200 μl PEG-400 containing […] naphthyridine (3 mg/kg/day). Another control group of mice received Matrigel without VEGFA and was treated with 200 μl PEG-400. The treatment was given once daily for six days. Weight and appearance of animals was monitored daily. On the 7th day, the Matrigel implants were removed from the euthanized mice for immunocytochemical examination. The Matrigel implants were frozen in Tissue-Tek O.C.T. compound (Sakura Finetek), sectioned, and processed as described previously (Kajiya et al., 2005). In brief, 6-μm frozen sections were fixed in −20° C. acetone for two minutes and in cold 80% methanol for five minutes, followed by incubation with antibodies against the lymphatic-specific marker LYVE1 (1:1,000; Millipore) and against the pan-endothelial marker […] (anti-mouse; 1:50; BD Biosciences). Corresponding secondary antibodies were labeled with Alexa 488 or Alexa 594 (Invitrogen). Nuclei were counterstained with 20 μg/ml Hoechst 33342 (Invitrogen). Sections were examined under an Axioskop 2 mot plus microscope and digital images were taken using an AxioCam MRc camera (Carl Zeiss). Three pictures each were taken of vascularized areas around the Matrigel implants (maximal distance from the implant: 500 μm). The vessel density, average vessel size and the average tissue area occupied by vessels were determined in CD31/LYVE1 stained sections using the IPLab software (BD Biosciences) as described (Kajiya et al., 2005).\nThe adenosine A1 receptor antagonist naphthyridine was identified as a novel inhibitor of lymphatic and blood vessel formation in Xenopus tadpoles and in vitro cellular assays, where it acted anti-mitogenic and impaired endothelial tube formation. […] It can be concluded that the ability of naphthyridine to inhibit lymph and blood vessel angiogenesis is conserved between Xenopus and mammals."}, "Xenopus embryos": {"test_system": "Xenopus embryos", "method_in_brief": "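Stage 31 (37 hpf) Xenopus embryos, five per well, exposed to 20 µM compound in 1% DMSO at 23 °C for 4 days. Edema, lethality and other external phenotypes were scored daily by two investigators at stages 39, 41, 45 and 47.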"}}, "note": "“Also recorded” adds a separate entry of the source. Read-outs that look alike come from different tables or passages of the source."}
{"smiles": "Oc1cc(-c2ccccc2)nc2nc(Cl)ccc12", "note": "[7-Chloro-4-hydroxy-2-phenyl-1,8-naphthyridine]", "values": [{"measurement": "activity at 10 µM", "setting": "LEC [1]", "result": "42 to 48", "unit": "%"}, {"measurement": "activity at 1 µM", "setting": "LEC [2]; overnight, read-out: LEC tube formation", "result": "50 to 85", "unit": "%"}, {"measurement": "activity at 1 µM", "setting": "LEC [2]; read-out: LEC tube formation (tube length)", "result": "50 to 85", "unit": "%"}, {"measurement": "IC50", "setting": "LEC [2]; doses 0.2-2 μM, data not shown, read-out: IC50 of LEC tube formation", "result": 1.3, "unit": "µM"}, {"measurement": "activity at 1 µM", "setting": "HUVEC; overnight, read-out: HUVEC tube formation", "result": "50 to 85", "unit": "%"}, {"measurement": "activity at 1 µM", "setting": "HUVEC; read-out: HUVEC tube formation (tube length)", "result": "50 to 85", "unit": "%"}, {"measurement": "density of lymphatic vessels", "setting": "[3]", "result": "unchanged"}, {"measurement": "number of VEGFA-induced blood vessels", "setting": "[3]", "result": "36.49±1.49"}, {"measurement": "tissue area covered by lymphatic vessels surrounding VEGFA containing Matrigels", "setting": "[3]", "result": "0.89±0.18", "unit": "%"}, {"measurement": "lymphatic vessel enlargement", "setting": "[3]; 3 mg/kg/day", "result": "potently inhibited; also recorded: reduction"}, {"measurement": "tissue area covered by blood vessels", "setting": "[3]; 3 mg/kg/day", "result": "reduction; also recorded: reduced"}, {"measurement": "Lethality (NF)", "setting": "Xenopus embryos; compounds causing edema, 20 μM, 1% DMSO, treatment from stage 31, scored to stage 47", "result": 39, "unit": "NF"}, {"measurement": "Type of edema Pericordial", "setting": "Xenopus embryos; embryonic stage", "result": "39 embryonic stages according to Nieuwkoop and Faber (NF)"}, {"measurement": "Lethality", "setting": "Xenopus embryos; embryonic stage, — = no stage of lethality given", "result": "39 embryonic stages according to Nieuwkoop and Faber (NF)"}]}
